Measured values reported in paper PMC4841451 (Journal of medicinal chemistry, 2016).

Tests used:
[1] = test system: pErk1/2 (MEK1 activity) in A549 and D54 cells; test: Western blot of pERK1/2 in cultured tumor cells; type: cell-based, human; details: both cell lines (A549, D54), 1 h treatment
[2] = test system: pAkt (PI3K activity) in A549 and D54 cells; test: Western blot of pAKT in cultured tumor cells; type: cell-based, human; details: 1 h treatment; for PI3K inhibition in cells (Western blot): both cell lines (A549, D54); for PI3K activity, level of pAKT (Western blot): cultured A549 cells
[3] = test system: A549 lung tumor cells; test: Cell viability, AlamarBlue assay, A549; type: cell-based, human; details: 48 h
[4] = test system: D54 glioma cells; test: Cell viability, AlamarBlue assay, D54; type: cell-based; details: 48 h
[5] = test system: tumor ERK1/2 phosphorylation; test: In vivo MEK1 inhibition in tumor bearing mice
[6] = test system: tumor Akt phosphorylation; test: In vivo PI3K inhibition in tumor bearing mice
[7] = preliminary experiment, A549 and D54 tumors, data not shown
[8] = 375 mg/kg oral gavage, 2 h prior to sacrifice, D54 and A549 flank tumors

Compound | inhibition of MEK activity in cells (Western blot) [1] | PI3K inhibition in cells (Western blot) [2] | PI3K activity, level of pAKT (Western blot) [2] | cell viability [3] | cell viability [4] | ERK1/2 levels in mouse tumors [5, 7] | pAkt levels in mouse tumors [6, 7] | phosphorylation of ERK1/2 in excised tumor tissue [5, 8] | phosphorylation of Akt in excised tumor tissue [6, 8]
O=C(NOCCNCCCCCC(=O)N1CCN(c2nc(N3CCOCC3)nc(-n3c(C(F)F)nc4ccccc43)n2)CC1)c1ccc(F)c(F)c1Nc1ccc(I)cc1F [Compound 9, N-(2-((6-(4-(4-(2-(Difluoromethyl)-1H-benzo[d]imidazol-1-yl)-6-morpholino-1,3,5-triazin-2-yl)piperazin-1-yl)-6-oxohexyl)amino)ethoxy)-3,4-difluoro-2-((2-fluoro-4-iodophenyl)amino)benzamide] | most pronounced | most pronounced | high potency | as effective as the combination of ZSTK474 and PD0325901 | as effective as the combination of ZSTK474 and PD0325901 | modulation | modulation | – | –
O=C(CNCCONC(=O)c1ccc(F)c(F)c1Nc1ccc(I)cc1F)NCCCCCC(=O)N1CCN(c2nc(N3CCOCC3)nc(-n3c(C(F)F)nc4ccccc43)n2)CC1 [Compound 7, N-(2-((2-((6-(4-(4-(2-(Difluoromethyl)-1H-benzo[d]imidazol-1-yl)-6-morpholino-1,3,5-triazin-2-yl)piperazin-1-yl)-6-oxohexyl)amino)-2-oxoethyl)amino)ethoxy)-3,4-difluoro-2-((2-fluoro-4-iodophenyl)amino)benzamide] | – | – | high potency | – | – | – | – | – | –
O=C(NOCCOCCOCCOCCN1CCN(c2nc(N3CCOCC3)nc(-n3c(C(F)F)nc4ccccc43)n2)CC1)c1ccc(F)c(F)c1Nc1ccc(I)cc1F [Compound 14, N-(2-(2-(2-(2-(4-(4-(2-(Difluoromethyl)-1H-benzo[d]imidazol-1-yl)-6-morpholino-1,3,5-triazin-2-yl)piperazin-1-yl)ethoxy)-ethoxy)ethoxy)ethoxy)-3,4-difluoro-2-((2-fluoro-4-iodophenyl)amino)benzamide] | most pronounced | most pronounced | high potency | as effective as the combination of ZSTK474 and PD0325901 | as effective as the combination of ZSTK474 and PD0325901 | – | – | inhibited | inhibited
